Data taken from patent US5773522A, “Polymer-bound camptothecin derivatives” (priority 1993, dated 1998).

Key:
[1] = test system: advanced M5076 murine reticulosarcoma; assay: Antitumor activity against advanced M5076 murine reticulosarcoma; assay type: in vivo, C57Bl/6 mice; details: iv on day 16,20,24,28,31,35; for % tumor inhibition: estimated at day 34
Method: (§1) Camptothecin (CPT) was dissolved in sterile water with 10% tween.
(§2) Treatment was administered i.v. in a volume of 10 ml/kg of body weight and control mice were treated with sterile water.
(§3) M5076 muine reticulosarcoma was maintained by serial i.m. passages and transplanted s.c. (5×10^5 cells/mouse) in compatible C57Bl/6 mice.
(§4) All animals were from Charles River Calco, Como, Italy.
(§5) Ten mice/group for conventional and eight for athymic mice were used.
(§6) The conventional mice weighed 20 to 22 g and were kept under standard laboratory conditions.
(§7) The mouse colony was routinely tested for the absence of antibodies to a panel of pathogens including Mouse Hepatitis, Sendai Virus and Mycoplasma Pulmonis.
(§8) Tumor growth was assesed by caliper measurement and the tumor weight estimated according to Geran et al. (see: Cancer Chem.Rep., Part 3, 3 (2) ed. 3, pp 1-103, 1972). The antitumor activity is expressed as percentage of inhibition of tumor growth (%T/I) using the following formula: [formula] The median increase in survival time (T/C%) was calculated using the following formula: [formula]
(§9) Toxicity was evaluated on the basis of the body weight reduction and gross autopsy findings, mainly in terms of reduction of spleen and liver size.

[2] = background statement; cited from earlier work
[3] = Toxicity (LD10, LD50) in healthy mice; assay type: in vivo, C57Bl/F mice; details: mouse, in vivo, iv, healthy C57B1/F mice; read-out: LD50 (dose inducing 50% of death mice)
healthy C57Bl/F mice = assay: Toxicity (LD10, LD50) in healthy mice; assay type: in vivo; details: i.v., healthy C57B1/F mice
HT29/Colon Carcinoma = assay: Antitumor activity in athymic mice transplanted s.c. with HT29 Colon Carcinoma; assay type: in vivo, athymic Swiss/nu/ mice; details: for % tumor inhib. / TOX (number of toxic deaths/total number of mice) / cured mice (tumor free mice 90 days after tumor implant): 7.5 mg/kg (CPT equivalent), iv q4dx6
Method: as §1, §2
HT29 Colon Carcinoma was transplanted s.c. in athymic Swiss/nu/ mice using 15-20 mg of tumor brei.
as §4, §5, §7, §8
Cured mice are mice without tumor at the end of the experiment.
as §9

[4] = test system: early M5076 murine reticulosarcoma; assay: Antitumor activity against early M5076 murine reticulosarcoma; assay type: in vivo, C57Bl/6 mice; details: 7.5 mg/kg (CPT equivalent); for % tumor inhib.: estimated one week after the last treatment
Method: Camptothecin (CPT) was dissolved in sterile water with 10% tween. […]
as §3, §4, §5, §6, §7, §8, §9

Water solubility = assay type: physicochemical; details: dissolved in saline
[5] = Stability of polymeric conjugates in murine or human plasma (camptothecin release); assay type: in vitro ADME
Method: Each sample was extracted by adding 100 μl of 0.25M phosphoric acid, 500 μl CH3 CN and 700 μl ethyl acetate and vigorously shaking for 20 minutes at 4° C. After that time, the sample was spun at 15000×g for 10 minutes and the supernatant was separated. To the residue was added 300 μl of CH3 CN and 500 μl was spun at 15000×g for 10 minutes. The supernatant was separated. The organic phases were pooled and evaporated using a high vacuum centrifuge. The sample was recovered by adding 500 μl of MeOH/water pH2 (70/30 by volume) and injected into HPLC apparatus for determining the total drug percentage content.

For `CC[C@@]1(O)C(=O)OCc2c1cc1n(c2=O)Cc2cc3ccccc3nc2-1` [CPT, camptothecin], which “T/C % (median increase in survival time)” value ([1]; 7.5 mg/kg (CPT equivalent)) is on record?
Its value is 173%.

And the “TOX (number of toxic deaths/total number of mice)” value ([1]; 7.5 mg/kg (CPT equivalent))?
Its value is 0/10.

What about the “% tumor inhibition” value ([1]; 7.5 mg/kg (CPT equivalent)) of the same compound?
Its value is 72%.

And the “solubility in vehicles suitable for parenteral administration (in words)” value [2]?
Its value is “practically insoluble”.

And the LD50 [3]?
The LD50 was 43.4 mg/kg.

What about the “LD10 (dose inducing 10% of death mice)” value (healthy C57Bl/F mice) of the same compound?
Its value is 16.9 mg/kg.

And the “% tumor inhib.” value (HT29/Colon Carcinoma)?
The value was 83%.

What about the “TOX (number of toxic deaths/total number of mice)” value (HT29/Colon Carcinoma) of the same compound?
Its value is 0/10.

And the “cured mice (tumor free mice 90 days after tumor implant)” value (HT29/Colon Carcinoma)?
The value was 0/10.

What about the “T/C % (median increase in survival time)” value ([4]; ip 1,6,9) of the same compound?
Its value is 165%.

What about the “TOX (number of toxic deaths/total number of mice)” value ([4]; ip 1,6,9) of the same compound?
The value was 0/10.

And the “% tumor inhib.” value ([4]; ip 1,6,9)?
The value was 100%.

Which results are given for “Copolymer of N-(2-hydroxypropyl)methacrylamide, 20-O-[N-methacryloylglycyl -L-phenylalanyl-L-leucylglycyl] camptothecin and N-(2-hydroxypropyl) methacryloylglycinamide [Compound A2]”?
T/C % (median increase in survival time) ([1]; 10.0 mg/kg (CPT equivalent)): 174%; TOX (number of toxic deaths/total number of mice) ([1]; 10.0 mg/kg (CPT equivalent)): 0/10; % tumor inhibition ([1]; 10.0 mg/kg (CPT equivalent)): 80%; T/C % (median increase in survival time) ([1]; 15.0 mg/kg (CPT equivalent)): 183%; TOX (number of toxic deaths/total number of mice) ([1]; 15.0 mg/kg (CPT equivalent)): 0/10; % tumor inhibition ([1]; 15.0 mg/kg (CPT equivalent)): 95%; water solubility (in words) (Water solubility): highly water soluble; camptothecin released after plasma incubation ([5]; after 60 hours): 100%; % tumor inhib. (HT29/Colon Carcinoma): 96%; TOX (number of toxic deaths/total number of mice) (HT29/Colon Carcinoma): 0/18; cured mice (tumor free mice 90 days after tumor implant) (HT29/Colon Carcinoma): 3/18; antitumor activity compared with camptothecin (in words) (HT29/Colon Carcinoma; all experiments (HT29, early and advanced M5076)): striking higher activity; T/C % (median increase in survival time) ([4]; iv 1,6,9): 171%; TOX (number of toxic deaths/total number of mice) ([4]; iv 1,6,9): 0/10; % tumor inhib. ([4]; iv 1,6,9): 100%

For “Copolymer of N-(2-hydroxypropyl)methacrylamide, 20-O-[N-methacryloylglycyl-(6-aminohexanoylyl]camptothecin and N-(2-hydroxy -propyl)methacryloylglycinamide [Al]”, which “camptothecin released after plasma incubation” value ([5]; after 120 hours) is on record?
Its value is 10%.

For “Copolymer of N-(^2 -hydroxypropyl)methacrylamide) 9-amino-20-O-[N-methacryloylglycyl-L-phenylalanyl-L-leucylglycyl] campto-thecin and N-(2-hydroxypropyl)methacryloylalycinamide [Compound A3]”, which “camptothecin released after plasma incubation” value ([5]; after 50 hours) is on record?
Its value is 100%.
